Data published in patent publication US10858352B2, “Pharmaceutical compounds” (Heptares Therapeutics Limited, priority 2018, dated 2020).
Where two headings read alike, the source gives them in different places.

Key:
[1] = target: T1, human muscarinic M1 receptor (Homo sapiens, UniProt P11229); assay: Alphascreen Surefire phospho-ERK1/2 functional assay, M1; assay type: cell-based; settings: for EC50 / pEC50 M1: agonist 5 min, 37° C.; for Emax: CHO, read-out: % Emax cf. ACh (M1), CHO cells stably expressing human M1; for Emax / % Emax cf. ACh (M1): Emax relative to ACh
T1 sequence (P11229 1-460): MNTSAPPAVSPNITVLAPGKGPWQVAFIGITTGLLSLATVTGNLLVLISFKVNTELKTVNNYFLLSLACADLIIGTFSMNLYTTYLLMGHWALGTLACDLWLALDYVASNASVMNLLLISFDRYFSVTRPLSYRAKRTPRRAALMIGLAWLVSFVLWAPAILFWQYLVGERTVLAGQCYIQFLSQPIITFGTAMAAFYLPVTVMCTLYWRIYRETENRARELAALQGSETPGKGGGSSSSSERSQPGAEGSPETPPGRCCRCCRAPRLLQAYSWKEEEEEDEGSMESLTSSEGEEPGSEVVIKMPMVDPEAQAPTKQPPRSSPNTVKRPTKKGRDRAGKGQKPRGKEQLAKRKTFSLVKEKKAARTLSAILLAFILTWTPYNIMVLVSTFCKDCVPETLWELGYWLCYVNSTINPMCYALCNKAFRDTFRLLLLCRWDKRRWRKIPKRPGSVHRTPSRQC
Protocol: (§1) ERK1/2 phosphorylation is a downstream consequence of both Gq/11 and Gi/o protein coupled receptor activation, making it highly suitable for the assessment of M1, M3 (Gq/11 coupled) and M2, M4 receptors (Gi/o coupled), rather than using different assay formats for different receptor subtypes. CHO cells stably expressing the human muscarinic M1, M2, M3 or M4 receptor were plated (25K/well) onto 96-well tissue culture plates in MEM-alpha+10% dialysed FBS. Once adhered, cells were serum-starved overnight. Agonist stimulation was performed by the addition of 5 μL agonist to the cells for 5 min (37° C.). Media was removed and 50 μL of lysis buffer added. After 15 min, a 4 μL sample was transferred to 384-well plate and 7 μL of detection mixture added. […]

[2] = target: T2, human muscarinic M4 receptor (Homo sapiens, UniProt P08173); assay: Alphascreen Surefire phospho-ERK1/2 functional assay, M4; assay type: cell-based; settings: for EC50: read-out: pEC50 M4 (converted); for Emax: CHO, read-out: % Emax cf. ACh (M4), CHO cells stably expressing human M4; for Emax / % Emax cf. ACh (M4): Emax relative to ACh
T2 construct: expressed in transfected cells
T2 sequence (P08173 1-479): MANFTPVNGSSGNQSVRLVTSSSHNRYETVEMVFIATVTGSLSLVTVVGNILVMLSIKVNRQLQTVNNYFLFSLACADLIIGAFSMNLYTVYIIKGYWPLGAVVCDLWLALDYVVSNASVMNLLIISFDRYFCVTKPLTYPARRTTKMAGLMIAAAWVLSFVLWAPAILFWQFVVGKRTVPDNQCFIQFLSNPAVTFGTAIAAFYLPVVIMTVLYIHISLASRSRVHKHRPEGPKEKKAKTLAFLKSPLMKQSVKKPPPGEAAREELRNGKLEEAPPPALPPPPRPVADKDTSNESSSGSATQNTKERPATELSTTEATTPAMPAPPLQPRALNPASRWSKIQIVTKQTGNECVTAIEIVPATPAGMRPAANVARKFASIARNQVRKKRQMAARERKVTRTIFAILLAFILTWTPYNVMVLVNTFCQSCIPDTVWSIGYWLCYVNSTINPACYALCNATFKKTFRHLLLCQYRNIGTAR
Protocol: as §1

[3] = CHO cells stably expressing human M1, read-out: pEC50 M1 (converted)
[4] = CHO cells stably expressing human M4, agonist 5 min, 37° C.
[5] = CHO cells stably expressing human M1
[6] = pEC50 M1, CHO cells stably expressing human M1
[7] = CHO cells stably expressing human M4

| EC50 [1, 3] [nM] | Emax [1] [%] | EC50 [2, 4] [nM] | Emax [2] [%] | % Emax cf. ACh (M1) [1, 5] | % Emax cf. ACh (M4) [2, 7] | pEC50 M4 [2, 4] | pEC50 M1 [1, 5] | Structure (SMILES) | EC50 [1, 6] [nM] |
| --- | --- | --- | --- | --- | --- | --- | --- | --- | --- |
| 372 | 97 | > 20000 | 10 | – | – | – | – | Cc1noc(N2CCCC(N3CCC4(CC3)CNC(=O)O4)CC2)n1 (racemic) [10-3 Racemic mixture] | – |
| 3980 | 56 | 219 | 101 | – | – | – | – | CCN(C(C)=O)C1CCN(C2CCCN(c3nc(C)no3)CC2)CC1 (racemic) [10-11 Racemic mixture] | – |
| > 20000 | 9 | 513 | 32 | – | – | – | – | CCOC(=O)[C@H]1[C@@H]2CN(C3CC4(CCN(c5nc(C)no5)C4)C3)C[C@@H]21 (single isomer, unassigned) [2-3 Isomer 2] | – |
| 8320 | 58 | 1230 | 68 | – | – | – | – | Cc1noc(N2CC3(CCC(N4CCC(n5cccn5)CC4)C3)C2)n1 (single isomer, unassigned) [3-1 Isomer 2] | – |
| 1350 | 32 | 129 | 73 | – | – | – | – | Cc1noc(N2CCCC(N3CCC(n4cccn4)CC3)CC2)n1 (single isomer, unassigned) [10-1 Isomer 1] | – |
| 6610 | – | 525 | – | (43) % | (72) % | – | – | Cc1noc(N2CCCC(N3CCC(n4cccn4)CC3)CC2)n1 (single isomer, unassigned) [10-1 Isomer 2] | – |
| 490 | – | – | – | (53) % | (15) % | <4.70 | – | Cc1noc(N2CCCC(N3CCC4(CC3)CNC(=O)C4)CC2)n1 (single isomer, unassigned) [10-2 Isomer 2] | – |
| 676 | – | 100 | – | (123) % | (85) % | – | – | CCC1NC(=O)OC12CCN(C1CCCN(c3nc(C)no3)CC1)CC2 (single isomer, unassigned) [10-4 Isomer 1] | – |
| 55 | – | 23.4 | – | (58) % | (64) % | – | – | CCC1NC(=O)OC12CCN(C1CCCN(c3nc(C)no3)CC1)CC2 (single isomer, unassigned) [10-4 Isomer 2] | – |
| 9330 | – | 2190 | – | (81) % | (71) % | – | – | CCC1NC(=O)OC12CCN(C1CCCN(c3nc(C)no3)CC1)CC2 (single isomer, unassigned) [10-4 Isomer 3] | – |
| > 20000 | – | 871 | – | (18) % | (36) % | – | – | CCC1NC(=O)OC12CCN(C1CCCN(c3nc(C)no3)CC1)CC2 (single isomer, unassigned) [10-4 Isomer 4] | – |
| > 20000 | 21 | 219 | 33 | – | – | – | – | Cc1noc(N2CCCC(N3CCC4(CC3)OC(=O)NC4(C)C)CC2)n1 (single isomer, unassigned) [10-5 Isomer 1] | – |
| 4270 | – | 398 | – | (70) % | (76) % | – | – | Cc1noc(N2CCCC(N3CCC(N4C[C@H](F)C[C@@H]4CO)CC3)CC2)n1 (single isomer, unassigned) [10-7 Isomer 2] | – |
| 676 | 37 | 93.3 | 91 | – | – | – | – | Cc1noc(N2CCCC(N3CCC(N4CC(F)(F)C[C@@H]4CO)CC3)CC2)n1 (single isomer, unassigned) [10-8 Isomer 1] | – |
| 1550 | – | 295 | – | (35) % | (73) % | – | – | Cc1noc(N2CCCC(N3CCC(N4CC(F)(F)C[C@@H]4CO)CC3)CC2)n1 (single isomer, unassigned) [10-8 Isomer 2] | – |
| 1320 | 53 | 479 | 56 | – | – | – | – | CC[C@H]1CCC(=O)N1C1CCN(C2CCCN(c3nc(C)no3)CC2)CC1 (single isomer, unassigned) [10-9 Isomer 2] | – |
| > 20000 | – | 513 | 56 | (6) % | – | – | – | Cc1noc(N2CCCC(N3CCC(N4CCCC4c4cnn(C)c4)CC3)CC2)n1 (single isomer, unassigned) [10-10 Isomer 1b] | – |
| – | – | 1450 | – | (3) % | (52) % | – | <4.70 | Cc1noc(N2CCCC(N3CCC(N4CCCC4c4cnn(C)c4)CC3)CC2)n1 (single isomer, unassigned) [10-10 Isomer 2a] | – |
| – | – | 316 | – | (14) % | (72) % | – | <4.70 | Cc1noc(N2CCCC(N3CCC(N4CCCC4c4cnn(C)c4)CC3)CC2)n1 (single isomer, unassigned) [10-10 Isomer 2b] | – |
| > 20000 | 22 | 309 | 100 | – | – | – | – | CNC(=O)N1CCC[C@H]1C1CCN(C2CCCN(c3nc(C)no3)CC2)CC1 (single isomer, unassigned) [10-12 Isomer 1] | – |
| – | – | 55 | – | (24) % | (119) % | – | <4.70 | CNC(=O)N1CCC[C@H]1C1CCN(C2CCCN(c3nc(C)no3)CC2)CC1 (single isomer, unassigned) [10-12 Isomer 2] | – |
| 3160 | 48 | 1050 | 69 | – | – | – | – | Cc1noc(N2CC3CC(N4CCC(n5cccn5)CC4)CC2C3)n1 (single isomer, unassigned) [11-1 Isomer 2] | – |
| 603 | – | > 20000 | – | (58) % | (5) % | – | – | Cc1noc(N2CC3CCC2CC3N2CCC3(CC2)CNC(=O)C3)n1 (single isomer, unassigned) [12-1 Isomer 1] | – |

| Structure (SMILES) | EC50 [1, 3] [nM] | Emax [1] [%] | EC50 [2, 4] [nM] | Emax [2] [%] | % Emax cf. ACh (M1) [1, 5] | % Emax cf. ACh (M4) [2, 7] | pEC50 M4 [2, 4] | pEC50 M1 [1, 5] | EC50 [1, 6] [nM] |
| --- | --- | --- | --- | --- | --- | --- | --- | --- | --- |
| Cc1noc(N2CC3CC(C2)C3N2CCC(n3cccn3)CC2)n1 (single isomer, unassigned) [5-1 Isomer 1] | > 20000 | 9 | 1260 | 55 | – | – | – | – | – |
| Cc1noc(N2C3CCC2CC(N2CCC4(CC2)CNC(=O)C4)C3)n1 (single isomer, unassigned) [6-2 Isomer 1] | – | – | > 20000 | – | (34) % | (9) % | – | – | 158 |
| Cc1noc(N2C3CCC2CC(N2CCC4(CC2)CNC(=O)C4)C3)n1 (single isomer, unassigned) [6-2 Isomer 2] | – | – | 170 | – | (81) % | (39) % | – | – | 63.1 |
| Cc1noc(N2C3CCC2CC(N2CCC4(CC2)CNC(=O)O4)C3)n1 (single isomer, unassigned) [6-4 Isomer 1] | 240 | – | > 20000 | – | (49) % | (15) % | – | – | – |
| Cc1noc(N2C3CCCC2CC(N2CCC(n4cccn4)CC2)C3)n1 (single isomer, unassigned) [8-1 Isomer 2] | > 20000 | 24 | 1260 | 38 | – | – | – | – | – |
| Cc1noc(N2C3CCCC2CC(N2CCC4(CC2)CNC(=O)C4)C3)n1 (single isomer, unassigned) [8-2 Isomer 1] | 214 | 30 | > 20000 | 9 | – | – | – | – | – |
| Cc1noc(N2C3CCCC2CC(N2CCC(C(=O)NC4(C)CCC4)CC2)C3)n1 (single isomer, unassigned) [8-4 Isomer 1] | 575 | 98 | 646 | 76 | – | – | – | – | – |
| Cc1noc(N2C3CCC2CC(N2CCC(C(=O)NC4(C(F)(F)F)CCC4)CC2)C3)n1 (single isomer, unassigned) [12-7 Isomer 2] | 537 | 109 | 2000 | 109 | – | – | – | – | – |
